Data reported in ChEMBL document CHEMBL1201862, “PubChem BioAssay data set” (2004).
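Tested at 5 concentrations; 48 h exposure; 96-well plates; endpoints linearly interpolated, else capped at highest concentration. At the GI50, growth is halved.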 Activity calls are given as the source filed them. Cut-off read from the data, not from the text of the source: active = GI50 up to about 1.1 µM and inactive = higher.

Tests used:
Experiment in all cases: NCI anticancer screen, dose series, 48 h
OVCAR-8 = system: OVCAR-8
A498 = system: A498
UACC-257 = system: UACC-257
CCRF-CEM = system: CCRF-CEM
SK-MEL-28 = system: SK-MEL-28
SNB-75 = system: SNB-75
SF-268 = system: SF-268
U-251 = system: U-251
SNB-19 = system: SNB-19
K562 = system: K562
ACHN = system: ACHN
HOP-92 = system: HOP-92
RXF 393 = system: RXF 393
HT-29 = system: HT-29
NCI-H226 = system: NCI-H226
CAKI-1 = system: CAKI-1
KM12 = system: KM12
MOLT-4 = system: MOLT-4
HCT-116 = system: HCT-116
MCF7 = system: MCF7

Structure (SMILES)	GI50 (OVCAR-8)	GI50 (A498)	GI50 (UACC-257)	GI50 (CCRF-CEM)	GI50 (SK-MEL-28)	GI50 (SNB-75)	GI50 (SF-268)	GI50 (U-251)	GI50 (SNB-19)	GI50 (K562)	GI50 (ACHN)	GI50 (HOP-92)	GI50 (RXF 393)	GI50 (HT-29)	GI50 (NCI-H226)	GI50 (CAKI-1)	GI50 (KM12)	GI50 (MOLT-4)	GI50 (HCT-116)	GI50 (MCF7)
CC(=O)NC1=C(C)C(=O)c2c(nc3n2CCC3OC(=O)c2ccccc2)C1=O (stereo not given)	1.3 µM (inactive)	12.7 µM (inactive)	1.54 µM (inactive)	1.19 µM (inactive)	1.86 µM (inactive)	3.58 µM (inactive)	2.21 µM (inactive)	1.89 µM (inactive)	2.69 µM (inactive)	2.32 µM (inactive)	3.04 µM (inactive)	1.9 µM (inactive)	3.79 µM (inactive)	0.514 µM (active)	2.05 µM (inactive)	2.6 µM (inactive)	2.61 µM (inactive)	1.99 µM (inactive)	1.94 µM (inactive)	–
O=C1CCCCCCCCCCOC(=O)CCCCCCCCCCO1	> 100 µM (inactive)	> 100 µM (inactive)	> 100 µM (inactive)	> 100 µM (inactive)	> 100 µM (inactive)	> 100 µM (inactive)	> 100 µM (inactive)	> 100 µM (inactive)	> 100 µM (inactive)	> 100 µM (inactive)	> 100 µM (inactive)	> 100 µM (inactive)	> 100 µM (inactive)	> 100 µM (inactive)	> 100 µM (inactive)	> 100 µM (inactive)	> 100 µM (inactive)	–	> 100 µM (inactive)	–
N#Cc1c(-c2ccccc2)c(CN2CCCCC2)c(=O)n2c1[nH]c1ccccc12	30.3 µM (inactive)	30.4 µM (inactive)	42 µM (inactive)	25.9 µM (inactive)	69.5 µM (inactive)	81.1 µM (inactive)	45.1 µM (inactive)	27.1 µM (inactive)	25.9 µM (inactive)	24.7 µM (inactive)	33.7 µM (inactive)	–	32.5 µM (inactive)	–	> 100 µM (inactive)	26.3 µM (inactive)	30.1 µM (inactive)	0.0764 µM (active)	16.6 µM (inactive)	13.2 µM (inactive)
O=C1c2cc3c(cc2CC12Cc1ccc4c(c1C2=O)CCC4)CCCC3 (stereo not given)	> 100 µM (inactive)	> 100 µM (inactive)	> 100 µM (inactive)	> 100 µM (inactive)	> 100 µM (inactive)	5.7 µM (inactive)	> 100 µM (inactive)	> 100 µM (inactive)	> 100 µM (inactive)	> 100 µM (inactive)	> 100 µM (inactive)	> 100 µM (inactive)	> 100 µM (inactive)	> 100 µM (inactive)	–	> 100 µM (inactive)	–	> 100 µM (inactive)	> 100 µM (inactive)	> 100 µM (inactive)
Cc1ccc(S(=O)(=O)NCCCSCCN)cc1	> 100 µM (inactive)	4.99 µM (inactive)	> 100 µM (inactive)	> 100 µM (inactive)	> 100 µM (inactive)	> 100 µM (inactive)	> 100 µM (inactive)	> 100 µM (inactive)	> 100 µM (inactive)	> 100 µM (inactive)	> 100 µM (inactive)	> 100 µM (inactive)	> 100 µM (inactive)	> 100 µM (inactive)	> 100 µM (inactive)	–	> 100 µM (inactive)	> 100 µM (inactive)	> 100 µM (inactive)	> 100 µM (inactive)
CC12CCC3C(CCC4CC(OC(=O)Cc5ccc(N(CCCl)CCCl)cc5)CCC43C)C1CCC(=O)N2 (stereo not given)	15.8 µM (inactive)	16.8 µM (inactive)	–	6.25 µM (inactive)	17.1 µM (inactive)	15 µM (inactive)	17.1 µM (inactive)	15.1 µM (inactive)	18.3 µM (inactive)	16.9 µM (inactive)	11.2 µM (inactive)	16.1 µM (inactive)	14.5 µM (inactive)	16.4 µM (inactive)	15.7 µM (inactive)	15.9 µM (inactive)	18.2 µM (inactive)	7.41 µM (inactive)	15.1 µM (inactive)	–
O=C(c1ccccc1)c1cc(Cl)ccc1NCn1nnc2ccccc21	> 100 µM (inactive)	65.2 µM (inactive)	55 µM (inactive)	77.4 µM (inactive)	–	35.1 µM (inactive)	–	55.2 µM (inactive)	> 100 µM (inactive)	34.6 µM (inactive)	> 100 µM (inactive)	91.4 µM (inactive)	30.3 µM (inactive)	51.1 µM (inactive)	> 100 µM (inactive)	–	33.2 µM (inactive)	42.1 µM (inactive)	–	–
